Patent US11197933B2, “Polysubunit opioid prodrugs resistant to overdose and abuse” (Elysium Therapeutics, Inc., priority 2017, dated 2021)

Tests used:
[1] = target: T1, trypsin (Bos taurus, UniProt P00760); test: Inhibition of trypsin-catalyzed hydrolysis of BANA (percent BANA remaining vs. time); format: biochemical; settings: for Ability to inhibit trypsin (result in words): increasing concentrations, BANA substrate
T1 construct: gene PRSS1
T1 sequence (P00760 24-246): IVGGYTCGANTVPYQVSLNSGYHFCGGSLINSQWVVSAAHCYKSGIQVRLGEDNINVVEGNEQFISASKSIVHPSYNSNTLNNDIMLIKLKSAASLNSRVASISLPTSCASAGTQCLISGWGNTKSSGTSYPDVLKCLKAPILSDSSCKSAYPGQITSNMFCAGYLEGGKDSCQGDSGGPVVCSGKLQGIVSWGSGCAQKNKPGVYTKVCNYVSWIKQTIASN
Method: This example describes in vitro experiments with a compound of the disclosure to provide a mechanism of overdose protection.
The effect of increasing concentrations of compounds II-D-11, II-D-23, II-D-71c and II-D-71b on the rate and extent of the trypsin-catalyzed hydrolysis of a commercially available trypsin substrate Nα-Benzoyl-L-arginine 4-nitroanilide hydrochloride (BANA) was evaluated in the presence of trypsin (2,000 BAEE activity) in a pH 7.4 phosphate buffer at 37° C. in vitro. Both buffer solution alone (i.e. no trypsin) and trypsin containing buffer solution (i.e. no test compounds) controls were run contemporaneously.

[2] = target: T1, trypsin; test: Trypsin inhibitory potency (key differentiating attributes, Table 5); format: biochemical
Text: (§1) As mentioned previously, a wide range of targeted oral pharmacokinetic profiles can be achieved by administering pharmaceutical compositions containing specific combinations of different polysubunit molecules to subjects. For example, the different polysubunit molecules contained in the composition may differ with regard to (i) the specific opioid agonists delivered, (ii) the rates at which the opioid agonist is delivered in vivo (i.e. to modify the oral pharmacokinetic profile of the delivered opioid), and (iii) the combined inhibitory potency of the GI enzyme inhibiting subunits [i.e. to modify the overdose protection profile and/or the prescribed dose strengths of the delivered opioid agonist(s)]. Table 5 below provides non-limiting examples of compounds of the invention with their key differentiating attributes. Table 6 discusses scenarios and rationales for using the compounds presented in Table 5 in combination with each other, in useful pharmaceutical formulations of the invention.

[3] = Rate of release of opioid agonist (key differentiating attributes, Table 5); settings: for Rate of Release of Opioid Against: in words (Fast/Slow); for half-life: read-out: Rate of Release of Opioid Against: T1/2
Text: as §1

[4] = after oral doses; cited from earlier work
[5] = in man; cited from earlier work

## COc1ccc2c3c1O[C@H]1C(OC(=O)N4CCC(C(=O)NCCCC[C@H](NC(=O)OCc5ccccc5)C(=O)NCCOc5ccc(C(=O)Oc6cccc(NC(=N)N)c6)cc5)CC4CNC(=O)[C@@H](CCCNC(=N)N)NC(=O)CNC(C)=O)=CC[C@H]4[C@@H](C2)N(C)CC[C@]314 (stereo partly drawn) [II-D-71b]
[1]; compound 10 uM, 2 minutes, trypsin 2,000 BAEE activity, pH 7.4 phosphate buffer, 37° C.
  Percent BANA remaining: 87.9%
[1]; compound 10 uM, 13 minutes, trypsin 2,000 BAEE activity, pH 7.4 phosphate buffer, 37° C.
  Percent BANA remaining: 0%
[1]; compound 10 uM, 24 minutes, trypsin 2,000 BAEE activity, pH 7.4 phosphate buffer, 37° C.
  Percent BANA remaining: 0%
[1]; compound 10 uM, 35 minutes, trypsin 2,000 BAEE activity, pH 7.4 phosphate buffer, 37° C.
  Percent BANA remaining: 0%
[1]; compound 10 uM, 46 minutes, trypsin 2,000 BAEE activity, pH 7.4 phosphate buffer, 37° C.
  Percent BANA remaining: 0%
[1]; compound 10 uM, 57 minutes, trypsin 2,000 BAEE activity, pH 7.4 phosphate buffer, 37° C.
  Percent BANA remaining: 0%
[1]; compound 10 uM, 68 minutes, trypsin 2,000 BAEE activity, pH 7.4 phosphate buffer, 37° C.
  Percent BANA remaining: 0%
[1]; compound 100 uM, 2 minutes, trypsin 2,000 BAEE activity, pH 7.4 phosphate buffer, 37° C.
  Percent BANA remaining: 93.1%
[1]; compound 100 uM, 13 minutes, trypsin 2,000 BAEE activity, pH 7.4 phosphate buffer, 37° C.
  Percent BANA remaining: 15.1%
[1]; compound 100 uM, 24 minutes, trypsin 2,000 BAEE activity, pH 7.4 phosphate buffer, 37° C.
  Percent BANA remaining: 2.4%
[1]; compound 100 uM, 35 minutes, trypsin 2,000 BAEE activity, pH 7.4 phosphate buffer, 37° C.
  Percent BANA remaining: 2.3%
[1]; compound 100 uM, 46 minutes, trypsin 2,000 BAEE activity, pH 7.4 phosphate buffer, 37° C.
  Percent BANA remaining: 1.4%
[1]; compound 100 uM, 57 minutes, trypsin 2,000 BAEE activity, pH 7.4 phosphate buffer, 37° C.
  Percent BANA remaining: 0%
[1]; compound 100 uM, 68 minutes, trypsin 2,000 BAEE activity, pH 7.4 phosphate buffer, 37° C.
  Percent BANA remaining: 0%
[1]; compound 1 mM, 2 minutes, trypsin 2,000 BAEE activity, pH 7.4 phosphate buffer, 37° C.
  Percent BANA remaining: 100%
[1]; compound 1 mM, 13 minutes, trypsin 2,000 BAEE activity, pH 7.4 phosphate buffer, 37° C.
  Percent BANA remaining: 76.1%
[1]; compound 1 mM, 24 minutes, trypsin 2,000 BAEE activity, pH 7.4 phosphate buffer, 37° C.
  Percent BANA remaining: 66.6%
[1]; compound 1 mM, 35 minutes, trypsin 2,000 BAEE activity, pH 7.4 phosphate buffer, 37° C.
  Percent BANA remaining: 59.6%
[1]; compound 1 mM, 46 minutes, trypsin 2,000 BAEE activity, pH 7.4 phosphate buffer, 37° C.
  Percent BANA remaining: 56.3%
[1]; compound 1 mM, 57 minutes, trypsin 2,000 BAEE activity, pH 7.4 phosphate buffer, 37° C.
  Percent BANA remaining: 55.7%
[1]; compound 1 mM, 68 minutes, trypsin 2,000 BAEE activity, pH 7.4 phosphate buffer, 37° C.
  Percent BANA remaining: 53.7%
[1]; pH 7.4, 37° C.
  Ability to inhibit trypsin (result in words): progressively inhibit trypsin in a concentration dependent manner
[2]
  Trypsin Inhibitory Potency: Low
[3]
  Rate of Release of Opioid Against: Fast
  half-life: ~10 min

## COc1ccc2c3c1O[C@H]1C(OC(=O)N4CCC(C(=O)NCCCC[C@H](NC(=O)OCc5ccccc5)C(=O)NCCOc5ccc(C(=O)Oc6ccc(NC(=N)N)cc6)cc5)CC4CNC(=O)[C@@H](CCCNC(=N)N)NC(=O)CNC(C)=O)=CC[C@H]4[C@@H](C2)N(C)CC[C@]314 (stereo partly drawn) [II-D-71c]
[1]; 1 uM compound, 2 minutes, pH 7.4, 37° C.
  Percent BANA remaining: 81.5%
[1]; 1 uM compound, 13 minutes, pH 7.4, 37° C.
  Percent BANA remaining: 0%
[1]; 1 uM compound, 24 minutes, pH 7.4, 37° C.
  Percent BANA remaining: 0%
[1]; 1 uM compound, 35 minutes, pH 7.4, 37° C.
  Percent BANA remaining: 0%
[1]; 1 uM compound, 46 minutes, pH 7.4, 37° C.
  Percent BANA remaining: 0%
[1]; 1 uM compound, 57 minutes, pH 7.4, 37° C.
  Percent BANA remaining: 0%
[1]; 1 uM compound, 68 minutes, pH 7.4, 37° C.
  Percent BANA remaining: 0%
[1]; 10 uM compound, 2 minutes, pH 7.4, 37° C.
  Percent BANA remaining: 76.5%
[1]; 10 uM compound, 13 minutes, pH 7.4, 37° C.
  Percent BANA remaining: 58.5%
[1]; 10 uM compound, 24 minutes, pH 7.4, 37° C.
  Percent BANA remaining: 42.5%
[1]; 10 uM compound, 35 minutes, pH 7.4, 37° C.
  Percent BANA remaining: 26.0%
[1]; 10 uM compound, 46 minutes, pH 7.4, 37° C.
  Percent BANA remaining: 13.0%
[1]; 10 uM compound, 57 minutes, pH 7.4, 37° C.
  Percent BANA remaining: 4.7%
[1]; 10 uM compound, 68 minutes, pH 7.4, 37° C.
  Percent BANA remaining: 0%
[1]; 100 uM compound, 2 minutes, pH 7.4, 37° C.
  Percent BANA remaining: 100%
[1]; 100 uM compound, 13 minutes, pH 7.4, 37° C.
  Percent BANA remaining: 100%
[1]; 100 uM compound, 24 minutes, pH 7.4, 37° C.
  Percent BANA remaining: 99%
[1]; 100 uM compound, 35 minutes, pH 7.4, 37° C.
  Percent BANA remaining: 100%
[1]; 100 uM compound, 46 minutes, pH 7.4, 37° C.
  Percent BANA remaining: 100%
[1]; 100 uM compound, 57 minutes, pH 7.4, 37° C.
  Percent BANA remaining: 100%
[1]; 100 uM compound, 68 minutes, pH 7.4, 37° C.
  Percent BANA remaining: 100%
[1]; 1 mM compound, 2 minutes, pH 7.4, 37° C.
  Percent BANA remaining: 100%
[1]; 1 mM compound, 13 minutes, pH 7.4, 37° C.
  Percent BANA remaining: 100%
[1]; 1 mM compound, 24 minutes, pH 7.4, 37° C.
  Percent BANA remaining: 99%
[1]; 1 mM compound, 35 minutes, pH 7.4, 37° C.
  Percent BANA remaining: 100%
[1]; 1 mM compound, 46 minutes, pH 7.4, 37° C.
  Percent BANA remaining: 100%
[1]; 1 mM compound, 57 minutes, pH 7.4, 37° C.
  Percent BANA remaining: 100%
[1]; 1 mM compound, 68 minutes, pH 7.4, 37° C.
  Percent BANA remaining: 100%
[1]; pH 7.4, 37° C.
  Ability to inhibit trypsin (result in words): progressively inhibit trypsin in a concentration dependent manner
[2]
  Trypsin Inhibitory Potency: High
[3]
  Rate of Release of Opioid Against: Fast
  half-life: ~10 min

## C[C@H]1[C@H]2Cc3ccc(O)cc3[C@]1(C)CCN2CC1CC1 [cyclazocine]
[4]
  Duration of action: ~24 h

## O=C1CC[C@@]2(O)[C@H]3Cc4ccc(O)c5c4[C@@]2(CCN3CC2CC2)[C@H]1O5 [naltrexone, Naltrexone]
[4]
  Duration of action: ~24 h
[5]
  Oral bioavailability: 5-40%
